What is called IC50 is the concentration at which inhibition is half-maximal.

Data on 16 compounds can be found in article PMC12005767 (Advanced Science, 2025).

Structures are written as SMILES.

In assay [1] the target is T1, HDAC1 (Homo sapiens, UniProt Q13547).
T1 construct: purchased BPS Bioscience
Further details: method as in PMID 27754681. The settings on record: prior research; cited from earlier work.

Assay [2] addresses T2, HDAC11 (Homo sapiens, UniProt Q96DB2).
T2 construct: The HDAC11 enzyme was a full‐length human recombinant HDAC enzyme sourced from BPS Bioscience; purchased BPS Bioscience
T2 sequence (Q96DB2 1-347): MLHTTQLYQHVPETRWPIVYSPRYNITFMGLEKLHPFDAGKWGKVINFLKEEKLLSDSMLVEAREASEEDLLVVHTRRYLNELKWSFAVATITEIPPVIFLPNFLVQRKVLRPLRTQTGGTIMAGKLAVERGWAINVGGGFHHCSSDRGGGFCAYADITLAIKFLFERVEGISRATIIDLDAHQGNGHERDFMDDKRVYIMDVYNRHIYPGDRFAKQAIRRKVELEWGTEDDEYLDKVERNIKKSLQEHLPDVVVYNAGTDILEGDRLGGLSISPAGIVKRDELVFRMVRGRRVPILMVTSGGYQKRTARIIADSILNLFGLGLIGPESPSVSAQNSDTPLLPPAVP
The assay is described as follows: HDAC11 inhibition fluorescence assay (ETDKmyr substrate). Type of assay: biochemical. The settings on record: for IC50: mean ± SEM. How it is done: The HDAC11 enzyme was a full‐length human recombinant HDAC enzyme sourced from BPS Bioscience. In detail, a total of 20 µL of recombinant HDAC11 enzyme solution (working concentration = 1 × 10^−9 M) was combined with varying concentrations of the test compound (20 µL) in a 96‐well black plate. The mixture was then incubated at a temperature of 30 °C for a duration of 1 h. Subsequently, 10 µL of the specific fluorogenic substrate (ETDKacyl‐Kmyr) was added. Following 2 h incubation at 30 °C, the catalytic reaction was ceased by adding 10 µL of a developer solution consisting of 2 mg mL^−1 trypsin and 5 × 10^−6 M trichostatin A (TSA). After a standing period of 6 h, the fluorescence intensity was assessed using a microplate reader at excitation and emission wavelengths of 360 and 460 nm, respectively. The inhibition ratios were calculated based on the fluorescence intensity readings of the test wells compared to the control wells. GraphPad Prism 8.0 software was employed to generate IC 50 curves and determine the corresponding IC 50 values utilizing the “log(inhibitor) versus normalized response‐variable slope” function.

Assay [3] has as its target T1, HDAC1. The experiment in a line: In vitro HDACs inhibition fluorescence assay, HDAC1. It is filed as biochemical. The settings on record: mean ± SEM. The procedure: (§1) In Vitro HDACs Inhibition Fluorescence Assay: For the inhibitory activity against HDAC1‐10, enzymes were also procured from BPS Bioscience. The in vitro […] inhibition assays were conducted following the established method described previously.^[ [45] ^] The working concentrations of HDAC1‐10 were 4 × 10^−9 M. The fluorogenic substrate of HDAC1, 2, 3, and 6 was Boc‐Lys (acetyl)‐AMC, and the substrate of HDAC4, 5, 7, 8, 9, and 10 was Boc‐Lys (trifluoroacetyl) AMC. The developer solution consists of 30 mg mL^−1 trypsin and 5 × 10^−6 M TSA. A standing period of 30 min was sufficient before assessing the fluorescence intensity.

In assay [4] the target is T3, HDAC3 (Homo sapiens, UniProt O15379).
T3 construct: purchased BPS Bioscience
The experiment in a line: In vitro HDACs inhibition fluorescence assay, HDAC3. Type of assay: biochemical. Particulars: mean ± SEM. The procedure:
as §1

T1 sequence (Q13547 whole entry): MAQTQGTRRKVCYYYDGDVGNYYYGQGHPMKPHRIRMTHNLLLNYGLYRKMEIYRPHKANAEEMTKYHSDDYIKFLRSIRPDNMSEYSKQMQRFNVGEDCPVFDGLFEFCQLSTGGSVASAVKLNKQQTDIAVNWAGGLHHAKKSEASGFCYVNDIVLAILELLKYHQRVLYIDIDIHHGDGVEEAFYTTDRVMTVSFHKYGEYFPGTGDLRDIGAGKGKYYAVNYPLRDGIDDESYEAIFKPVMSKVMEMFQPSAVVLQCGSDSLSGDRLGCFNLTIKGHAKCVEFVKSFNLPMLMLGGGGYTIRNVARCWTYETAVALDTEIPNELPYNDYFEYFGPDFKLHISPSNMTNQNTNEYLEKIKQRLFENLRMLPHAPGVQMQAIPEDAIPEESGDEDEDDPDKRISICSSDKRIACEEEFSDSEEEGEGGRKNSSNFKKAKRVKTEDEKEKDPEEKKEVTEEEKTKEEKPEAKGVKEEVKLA
T3 sequence (O15379 whole entry): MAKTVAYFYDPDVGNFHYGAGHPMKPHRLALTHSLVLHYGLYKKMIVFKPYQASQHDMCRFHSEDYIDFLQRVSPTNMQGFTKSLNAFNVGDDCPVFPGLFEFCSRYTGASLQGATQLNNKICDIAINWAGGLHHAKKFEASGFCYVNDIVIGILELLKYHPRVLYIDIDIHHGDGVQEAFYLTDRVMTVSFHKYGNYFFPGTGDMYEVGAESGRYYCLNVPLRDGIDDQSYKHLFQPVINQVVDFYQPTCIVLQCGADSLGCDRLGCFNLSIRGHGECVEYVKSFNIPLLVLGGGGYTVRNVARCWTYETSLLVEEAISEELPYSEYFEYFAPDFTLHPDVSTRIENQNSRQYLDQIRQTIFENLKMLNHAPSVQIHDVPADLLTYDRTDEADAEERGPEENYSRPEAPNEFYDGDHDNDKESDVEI
T3 sequence (Q9Y618 395-489 partner limits assumed): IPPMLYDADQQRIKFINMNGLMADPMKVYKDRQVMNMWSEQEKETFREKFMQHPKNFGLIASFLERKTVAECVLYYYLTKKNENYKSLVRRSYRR

On to `CCCCNNC(=O)c1ccc(CNC(=O)c2ccccc2)cc1` [A1], for which the “IC50 for HDAC1 (in words)” value in assay [1] is recorded as “low nanomolar”. Also, in assay [2], the “inhibitory activity against HDAC11 (in words)” value is “moderate inhibitory activity” and the IC50 worked out at 3250 ± 241 nM. In addition, in assay [3], the IC50 came to 20.5 ± 1.4 nM.
Regarding `CCCCCNNC(=O)c1ccc(CNC(=O)c2ccccc2)cc1` [A2], the “IC50 for HDAC1 (in words)” value in assay [1] was “low nanomolar”. Also, in assay [2], the “inhibitory activity against HDAC11 (in words)” value is given as “moderate inhibitory activity” and half-maximal inhibition (IC50) required 6740 ± 324 nM. The compound further displayed an IC50 in assay [3] of 45.6 ± 2.36 nM.
For the compound `CCCCCCNNC(=O)c1ccc(CNC(=O)c2ccccc2)cc1` [A3], the IC50 in assay [2] was greater than 10000 nM; in assay [3], 34.5 ± 3.15 nM; in assay [4], 6.79 ± 0.19 nM.
The like results for `CCCCCCCNNC(=O)c1ccc(CNC(=O)c2ccccc2)cc1` [A4] were, in that order, 3310 ± 157 nM, 415 ± 153 nM and 6360 ± 324 nM.
The like results for `CCCCCCCCNNC(=O)c1ccc(CNC(=O)c2ccccc2)cc1` [A5] were, in that order, 942 ± 94.1 nM, 2050 ± 27.5 nM and 501 ± 2.4 nM.
The like results for `CCCCCCCCCNNC(=O)c1ccc(CNC(=O)c2ccccc2)cc1` [A6] were, in that order, 504 ± 45.5 nM, greater than 10000 nM and 2050 ± 39.5 nM.
Take `CCCCCCCCCCNNC(=O)c1ccc(CNC(=O)c2ccccc2)cc1` [A7]: the IC50 is 416 ± 41.1 nM in assay [2], greater than 10000 nM in assay [3] and greater than 10000 nM in assay [4].
For the compound `CCCCCCCCCCCCNNC(=O)c1ccc(CNC(=O)c2ccccc2)cc1` [A9], the values for the IC50 in assay [2], in assay [3] and in assay [4] were 132 ± 4.29 nM, greater than 10000 nM and greater than 10000 nM, respectively.
On to `O=C(NCc1ccc(C(=O)NNCCCCCCCCCCO)cc1)c1ccccc1` [B1], for which 664 ± 64.9 nM corresponded to half-maximal inhibition in assay [2] (IC50).
Take `COCCCCCCCCCNNC(=O)c1ccc(CNC(=O)c2ccccc2)cc1` [B2]: in assay [2], the IC50 was determined as 1550 ± 116 nM.
Same read-out and setting: the figure for `CCOCCCCCCCCNNC(=O)c1ccc(CNC(=O)c2ccccc2)cc1` [B3] is 494 ± 41.9 nM.
In assay [2], `CCCOCCCCCCCNNC(=O)c1ccc(CNC(=O)c2ccccc2)cc1` [B4] gave an IC50 of 257 ± 12.1 nM.
The same measure, in the same setting: the figure for `CCCCOCCCCCCNNC(=O)c1ccc(CNC(=O)c2ccccc2)cc1` [B5] is 357 ± 16.5 nM; for `COCCOCCCCCCNNC(=O)c1ccc(CNC(=O)c2ccccc2)cc1` [B7] it is 2440 ± 223 nM; for `CCOCCOCCCCCNNC(=O)c1ccc(CNC(=O)c2ccccc2)cc1` [B8] it is 801 ± 49.5 nM.
Turning to `CCCCCCCCCCCCCCCCNNC(=O)c1cccs1` [SIS17, reference compound], the figures for the IC50 in assay [2], in assay [3] and in assay [4] were 243 ± 12.3 nM, greater than 10000 nM and greater than 10000 nM, respectively.
